Experimental data published in US20140303164A1, “THERAPEUTIC COMPOUNDS” (Gilead Sciences, Inc., priority 2013, published 2014).

What was measured:
uninfected MT-4 cells = assay: Test B: Cytotoxicity Assay; type: cell-based; conditions: same protocol as Test A, 5 days
In short: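 Uninfected MT-4 cells (2000 per well) incubated with diluted compound at 37° C. for 5 days, following the antiviral protocol without HIV-IIIb.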

HIV-IIIb = assay: Test A: Antiviral Assay in MT4 Cells; type: cell-based, HIV-1; conditions: from dose response curve, MT-4 cells, HIV-IIIb, 5 days, values above 100 normalized to 100; for % inhibition at 0.2 μM: percent inhibition of virus-induced cell killing at 0.2 μM drug concentration; for % inhibition at 2 μM: percent inhibition of virus-induced cell killing at 2 μM drug concentration
Method: Test A: Antiviral Assay in MT4 Cells
MT-4 cells were next mixed with HIV-IIIb at an m.o.i of 0.003 for 1 hour, after which time 35 μL of virus/cell mixture (2000 cells) was immediately added to each well containing 40 μL of diluted compound. The plates were then incubated at 37° C. for 5 days. […] Cell lysis was carried out by incubating at room temperature for 10 min and then chemiluminescence was read.

Row | SMILES | CC50 (uninfected MT-4 cells) [µM] | % inhibition at 0.2 μM (HIV-IIIb) [%] | % inhibition at 2 μM (HIV-IIIb) [%]
1 | Cn1cc(-c2ccc(-c3ccc(Cl)c4c(NS(C)(=O)=O)nn(C)c34)c([C@H](Cc3cc(F)cc(F)c3)NC(=O)Cn3nc(C(F)(F)F)c4c3C(F)(F)[C@@H]3C[C@H]43)n2)cn1 [Compound 173, N—((S)-1-(3-(4-chloro-1-methyl-3-(methylsulfonamido)-1H-indazol-7-yl)-6-(1-methyl-1H-pyrazol-4-yl)pyridin-2-yl)-2-(3,5-difluorophenyl)ethyl)-2-((3b-S,4aR)-5,5-difluoro-3-(trifluoromethyl)-3b,4,4a,5-tetrahydro-1H-cyclopropa[3,4]cyclopenta[1,2-c]pyrazol-1-yl)acetamide] | > 43.7 | 92 | 92
2 | Cc1ccc(-c2ccc(C#CC(C)(C)O)nc2[C@H](Cc2cc(F)cc(F)c2)NC(=O)Cn2nc(C(F)F)c3c2C(F)(F)[C@@H]2C[C@H]32)c2c1c(NS(N)(=O)=O)nn2C [Compound 71, 2-((3b-S,4aR)-3-(difluoromethyl)-5,5-difluoro-3b,4,4a,5-tetrahydro-1H-cyclopropa[3,4]cyclopenta[1,2-c]pyrazol-1-yl)-N—((S)-2-(3,5-difluorophenyl)-1-(3-(1,4-dimethyl-3-(sulfamoylamino)-1H-indazol-7-yl)-6-(3-hydroxy-3-methylbut-1-yn-1-yl)pyridin-2-yl)ethyl)acetamide] | 9.51 | 87 | 87
3 | CC(C)(O)C#Cc1ccc(-c2cccc3c(N)n[nH]c23)c([C@H](Cc2cc(F)cc(F)c2)NC(=O)Cn2nc(C(F)(F)F)c3c2C(F)(F)[C@@H]2C[C@H]32)n1 [Compound 29B, N—((S)-1-(3-(3-amino-1H-indazol-7-yl)-6-(3-hydroxy-3-methylbut-1-yn-1-yl)pyridin-2-yl)-2-(3,5-difluorophenyl)ethyl)-2-((3b-S,4aR)-5,5-difluoro-3-(trifluoromethyl)-3b,4,4a,5-tetrahydro-1H-cyclopropa[3,4]cyclopenta[1,2-c]pyrazol-1-yl)acetamide] | 15.3 | 80 | 81
4 | CCC(O)C#Cc1ccc(-c2ccc(Cl)c3c(NS(C)(=O)=O)nn(C)c23)c([C@H](Cc2cc(F)cc(F)c2)NC(=O)Cn2nc(C(F)(F)F)c3c2C(F)(F)[C@@H]2C[C@H]32)n1 (stereo partly drawn) [Compound 145, N-((1S)-1-(3-(4-chloro-1-methyl-3-(methylsulfonamido)-1H-indazol-7-yl)-6-(3-hydroxypent-1-yn-1-yl)pyridin-2-yl)-2-(3,5-difluorophenyl)ethyl)-2-((3b-S,4aR)-5,5-difluoro-3-(trifluoromethyl)-3b,4,4a,5-tetrahydro-1H-cyclopropa[3,4]cyclopenta[1,2-c]pyrazol-1-yl)acetamide] | 8.69 | 99 | 99
5 | CC(C)(C)C#Cc1ccc(-c2cccn3c(NS(C)(=O)=O)nnc23)c([C@H](Cc2cc(F)cc(F)c2)NC(=O)Cn2nc(C(F)F)c3c2C(F)(F)[C@@H]2C[C@H]32)n1 [Compound 134, 2-((3bS,4aR)-3-(difluoromethyl)-5,5-difluoro-3b,4,4a,5-tetrahydro-1H-cyclopropa[3,4]cyclopenta[1,2-c]pyrazol-1-yl)-N—((S)-2-(3,5-difluorophenyl)-1-(6-(3,3-dimethylbut-1-yn-1-yl)-3-(3-(methylsulfonamido)-[1,2,4]triazolo[4,3-a]pyridin-8-yl)pyridin-2-yl)ethyl)acetamide] | 28 | 82 | 83
6 | Cn1nc(NS(C)(=O)=O)c2cccc(-c3ccc(C#C[C@@H](N)CO)nc3[C@H](Cc3cc(F)cc(F)c3)NC(=O)Cn3nc(C(F)(F)F)c4c3C(F)(F)[C@@H]3C[C@H]43)c21 [Compound 59B, N—((S)-1-(6-((R)-3-amino-4-hydroxybut-1-yn-1-yl)-3-(1-methyl-3-(methylsulfonamido)-1H-indazol-7-yl)pyridin-2-yl)-2-(3,5-difluorophenyl)ethyl)-2-((3b-S,4aR)-5,5-difluoro-3-(trifluoromethyl)-3b,4,4a,5-tetrahydro-1H-cyclopropa[3,4]cyclopenta[1,2-c]pyrazol-1-yl)acetamide] | 22.4 | 94 | 94
7 | Cn1nc(NS(C)(=O)=O)c2c(Cl)ccc(-c3ccc(-c4ccccn4)nc3[C@H](Cc3cc(F)cc(F)c3)NC(=O)Cn3nc(C(F)(F)F)c4c3C(F)(F)[C@@H]3C[C@H]43)c21 [Compound 172, N—((S)-1-(5-(4-chloro-1-methyl-3-(methylsulfonamido)-1H-indazol-7-yl)-[2,2′-bipyridin]-6-yl)-2-(3,5-difluorophenyl)ethyl)-2-((3b-S,4aR)-5,5-difluoro-3-(trifluoromethyl)-3b,4,4a,5-tetrahydro-1H-cyclopropa[3,4]cyclopenta[1,2-c]pyrazol-1-yl)acetamide] | 0.061 |  | 
8 | COc1cc(-c2ccc(Cl)c3c(NS(C)(=O)=O)nn(C)c23)c([C@H](Cc2cc(F)cc(F)c2)NC(=O)Cn2nc(C(F)(F)F)c3c2C(F)(F)[C@@H]2C[C@H]32)nc1C#CC(C)(C)O [Compound 135B, N—((S)-1-(3-(4-chloro-1-methyl-3-(methylsulfonamido)-1H-indazol-7-yl)-6-(3-hydroxy-3-methylbut-1-yn-1-yl)-5-methoxypyridin-2-yl)-2-(3,5-difluorophenyl)ethyl)-2-((3b-S,4aR)-5,5-difluoro-3-(trifluoromethyl)-3b,4,4a,5-tetrahydro-1H-cyclopropa[3,4]cyclopenta[1,2-c]pyrazol-1-yl)acetamide] | 14.2 | 93 | 93
